The source of these data is patent US10487348B2, “3-alpha-hydroxysteroid dehydrogenase mutants and process for the preparation of ursodeoxycholic acid” (Pharmazell GmbH, priority 2014, dated 2019).

Each structure is given as a SMILES string. Positions count from the first letter of the chain named. Where only a bound is given, the exact number is not on record here.

Test [1] deals with T1, Comamonas testosteroni 3α-HSDH dual mutant [L68A/T188A], N-terminal hexahistidine tag (Comamonas testosteroni, UniProt P80702, L68A/T188A).
T1 sequence (P80702 1-257 L68A/T188A): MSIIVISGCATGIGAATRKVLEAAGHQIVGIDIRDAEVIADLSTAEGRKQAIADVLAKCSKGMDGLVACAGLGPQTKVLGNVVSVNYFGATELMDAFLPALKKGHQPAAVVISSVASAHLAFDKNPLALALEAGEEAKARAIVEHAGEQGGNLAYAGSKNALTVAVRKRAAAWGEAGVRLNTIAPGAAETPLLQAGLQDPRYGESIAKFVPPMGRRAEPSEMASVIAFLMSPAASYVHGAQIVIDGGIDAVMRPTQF
Description: (§1) The activity of the 3α-HSDH and of the mutants was determined using a photometric assay, where the decrease in absorbance was measured at 340 nm over a period of 30 seconds.

The target in test [2] is T2, Comamonas testosteroni 3α-HSDH dual mutant [P185A/T188A], N-terminal hexahistidine tag (Comamonas testosteroni, UniProt P80702, P185A/T188A).
T2 sequence (P80702 1-257 P185A/T188A): T1 sequence (P80702 1-257 L68A/T188A) with A68L, P185A
Kind of test: Kinetics of 3α-HSDH [P185A/T188A], N-terminal His tag.
Description: as §1

Test [3] deals with T3, Comamonas testosteroni 3α-HSDH mutant [T188A], N-terminal hexahistidine tag (Comamonas testosteroni, UniProt P80702, T188A).
T3 sequence (P80702 1-257 T188A): T1 sequence (P80702 1-257 L68A/T188A) with A68L
Put plainly: Kinetics of 3α-HSDH [T188A], N-terminal His tag.
Description: as §1

Test [4] concerns the target T4, Comamonas testosteroni 3α-HSDH mutant [L68A], N-terminal hexahistidine tag (Comamonas testosteroni, UniProt P80702, L68A).
T4 sequence (P80702 1-257 L68A): T1 sequence (P80702 1-257 L68A/T188A) with A188T
Description: as §1
After cultivation and expression, the proteins were purified by means of Ni-NTA chromatography, the specific activities were determined and their kinetic constants were determined.

Test [5] deals with T5, Comamonas testosteroni 3α-HSDH, wild type, C-terminal 9×His tag (SEQ ID NO: 51) (Comamonas testosteroni, UniProt P80702).
T5 sequence (P80702 with tags, fused parts or gaps): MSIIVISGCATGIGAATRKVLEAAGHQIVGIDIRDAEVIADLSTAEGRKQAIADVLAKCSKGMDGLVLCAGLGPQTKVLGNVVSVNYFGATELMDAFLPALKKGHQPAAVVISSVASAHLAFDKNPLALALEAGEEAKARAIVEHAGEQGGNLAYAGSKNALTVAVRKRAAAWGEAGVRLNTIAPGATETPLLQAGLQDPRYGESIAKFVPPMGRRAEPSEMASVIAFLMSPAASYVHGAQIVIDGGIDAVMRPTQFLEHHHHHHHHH
Kind of test: Michaelis-Menten kinetics of 3α-HSDH with 9×His tag.
Excerpt: The His-tag allows for very simple purification of the HSDH protein since this sequence is bound with high specificity by specific chromatographic material (NTA (Ni-nitrilotriacetate)-modified support material, loaded with divalent nickel ions, for example “His Pur Ni-NTA” (Nimagen B. V., Nijmegen, The Netherlands)). To this end, the cell-free crude extract is applied to a dropping column comprising this material, which dropping column has previously been equilibrated with the disruption buffer (3 to 5 column volumes). Weakly binding protein was removed by washing with 3 to 5 column volumes of wash buffer (20 mM imidazole, 50 mM sodium phosphate, 300 mM NaCl, pH 8). […] The process was carried out at room temperature. The imidazole which was present was to be removed by buffer exchange.
as §1
Following expression (25° C., 0.5 mM, IPTG, 20 hours), the protein was purified, and the expression and the purification were checked by means of an SDS gel. […] The NADH concentration was 0.2 mM. Purified protein was employed in the measurements.

The target in test [6] is T6, Comamonas testosteroni 3α-HSDH mutant [T188S], N-terminal hexahistidine tag (Comamonas testosteroni, UniProt P80702, T188S).
T6 sequence (P80702 1-257 T188S): T1 sequence (P80702 1-257 L68A/T188A) with A68L, A188S
Kind of test: Kinetics of 3α-HSDH [T188S], N-terminal His tag.
Description: as §1

Setting [7] is: Table 14, substrate DHCA, tag N, apparent values.
Where [8] appears, read: Table 14, substrate DHCA, tag N, NADH 0.2 mM, apparent values.
The mark [9] stands for this setting: His tag length 9, DHCA 10 μM-10 mM, NADH 0.2 mM, purified.

For orientation: kcat means the number of substrate molecules converted per active site and unit of time at saturation. Regarding `C[C@H](CCC(=O)O)[C@H]1CC[C@H]2[C@@H]3C(=O)C[C@@H]4CC(=O)CC[C@]4(C)[C@H]3CC(=O)[C@]12C` [DHCA, dehydrocholic acid], the turnover number (kcat) is 111.1 s⁻¹ in test [1] (setting [7]); 17.6 s⁻¹ in test [2] (setting [7]); 130.3 s⁻¹ in test [3] (setting [7]); 138.0 s⁻¹ in test [4] (setting [8]); 8.9 ± 0.5 s⁻¹ in test [5] (setting [9]); 158.2 s⁻¹ in test [6] (setting [7]). Also, the vmax in test [1] (setting [7]) is 233.5 ± 12.5 U/mg; in test [2] (setting [7]), 36.9 ± 2.6 U/mg; in test [3] (setting [7]), 274.0 ± 11.6 U/mg; in test [4] (setting [8]), 290.0 ± 45.4 U/mg; in test [5] (setting [9]), 19.2 ± 1.1 U/mg; in test [6] (setting [7]), 332.5 ± 59.9 U/mg. Moreover, the remaining activity at 1000 µM in test [1] (read-out: residual activity) is 85%; in test [4] (read-out: residual activity), about 15%. Also, the remaining activity at 10000 µM in test [1] (read-out: residual activity) is over 20%; in test [2] (read-out: residual activity), about 30%; in test [4] (read-out: residual activity), about 8%. Also, the remaining activity at 20000 µM was about 20% in test [3] (read-out: residual activity) and over 20% in test [6] (read-out: residual activity). In test [5] (DHCA, 9 vs 3 histidines), the “KM value better than the variant with 3 histidines” value is recorded as 14 fold.
